IC50 data for 21 compounds are collected here from patent US8987248B2, “Substituted piperidines as Par-1 antagonists” (Bayer Intellectual Property GmbH, priority 2009, dated 2015).

pIC50: −log10 of the molar value. Counter-ions that a name gives are not always drawn.

For this assay, the target named is human protease activated receptor 1 (PAR-1) (Homo sapiens (Human), UniProt P25116). The experiment in a line: Cellular, functional in vitro test (aequorin luminescence, calcium release in recombinant HEK293 PAR-1 test cell). The assay is classed as cell-based. Conditions: HEK293-derived PAR-1 test cell line expressing aequorin; PAR-1 agonist added at its EC50, 5 min after test substance. An excerpt: 1.a) Cellular, Functional In Vitro Test
human protease activated receptor 1 (PAR-1), sequence (P25116 22-425): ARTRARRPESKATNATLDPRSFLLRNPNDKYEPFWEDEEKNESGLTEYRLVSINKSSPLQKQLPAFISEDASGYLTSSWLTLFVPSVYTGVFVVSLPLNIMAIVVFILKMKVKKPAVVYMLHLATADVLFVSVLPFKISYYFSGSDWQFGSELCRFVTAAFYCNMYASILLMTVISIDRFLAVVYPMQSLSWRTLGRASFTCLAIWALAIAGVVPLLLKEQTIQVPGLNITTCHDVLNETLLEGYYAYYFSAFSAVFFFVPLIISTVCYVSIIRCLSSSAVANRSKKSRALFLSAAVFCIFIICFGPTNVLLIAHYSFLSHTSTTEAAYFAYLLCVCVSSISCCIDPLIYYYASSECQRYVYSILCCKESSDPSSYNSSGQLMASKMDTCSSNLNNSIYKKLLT
A recombinant cell line is used to identify […] of the human protease activated receptor 1 (PAR-1) and to quantify the activity of the substances described herein. The cell is originally derived from a human embryonal kidney cell (HEK293; ATCC: American Type Culture Collection, Manassas, Va. 20108, USA). The test cell line constitutively expresses a modified form of the calcium-sensitive photoprotein aequorin which, after reconstitution with the cofactor coelenterazine, emits light when the free calcium concentration in the inner mitochondrial compartment is increased (Rizzuto R, Simpson A W, Brini M, Pozzan T.; Nature 1992, 358, 325-327). Additionally, the cell stably expresses the endogenous human PAR-1 receptor and the endogenous purinergic receptor P2Y2. The resulting PAR-1 test cell responds to stimulation of the endogenous PAR-1 or P2Y2 receptor with an intracellular release of calcium ions, which can be quantified through resulting aequorin luminescence with a suitable luminometer (Milligan G, Marshall F, Rees S, Trends in Pharmacological Sciences 1996, 17, 235-237).
For the testing of the substance specificity, the effect thereof after activation of the endogenous PAR-1 receptor is compared with the effect after activation of the endogenous purinergic P2Y2 receptor which utilizes the same intracellular signal path.
Two days (48 hours) before the assay, the cells are plated out in culture medium (DMEM F12, supplemented with 10% FCS, 2 mM glutamine, 10 mM HEPES, 1.4 mM pyruvate, 0.1 mg/ml gentamycin, 0.15% Na bicarbonate; BioWhittaker Cat. #BE04-687Q; B-4800 Verviers, Belgium) in 384-well microtitre plates and kept in a cell incubator (96% humidity, 5% v/v CO2, 37° C.). On the day of the test, the culture medium is replaced by a tyrode solution (in mM: 140 sodium chloride, 5 potassium chloride, 1 magnesium chloride, 2 calcium chloride, 20 glucose, 20 HEPES), which additionally contains the cofactor coelenterazine (25 μM) and glutathione (4 mM), and the microtitre plate is then incubated for a further 3-4 hours. The test substances are then pipetted onto the microtitre plate, and 5 minutes after the transfer of the test substances into the wells of the microtitre plate the plate is transferred into the luminometer, a PAR-1 agonist concentration which corresponds to the EC50 is added and the resulting light signal is immediately measured in the luminometer. To distinguish an antagonist substance action from a toxic action, the endogenous purinergic receptor is immediately subsequently activated with agonist (ATP, final concentration 10 μM) and the resulting light signal is measured.

As usually defined, the pIC50 is −log10 of the IC50, conventionally taken in molar units. Regarding `O=C1CN(C(=O)N2CC(NC(=O)c3ccccc3)CC(c3ccc(C(F)(F)F)cc3)C2)CCN1` (racemic) [Example 141, N-{1-[(3-Oxopiperazin-1-yl)carbonyl]-5-[4-(trifluoromethyl)phenyl]piperidin-3-yl}benzenecarboxamide], the pIC50 was 7.27.

Regarding `Cc1ccc(C2CC(NC(=O)c3ccccc3)CN(C(=O)C3(N)CCC3)C2)cc1C` (racemic) [Example 119, N-{1-[(1-Aminocyclobutyl)carbonyl]-5-(3,4-dimethylphenyl)piperidin-3-yl}benzenecarboxamide hydrochloride], the negative-log IC50 (pIC50) is 7.80.

Turning to `C[C@@H]1CC[C@@H](C)N1C(=O)N1CC(NC(=O)c2ccccc2)CC(c2ccc(C(F)(F)F)cc2)C1` (mixture of isomers) [Example 133, N-(1-{[(2R,5R)-2,5-Dimethylpyrrolidin-1-yl]carbonyl}-5-[4-(trifluoromethyl)phenyl]piperidin-3-yl)benzenecarboxamide], the negative logarithm of the IC50 (pIC50) was 7.84.

Turning to `CCc1ccc(C2CC(C(=O)Nc3ccccc3)CN(C(=O)C(C)(C)CF)C2)cc1` (racemic) [Example 7, 5-(4-Ethylphenyl)-1-(3-fluoro-2,2-dimethylpropanoyl)-N-phenylpiperidine-3-carboxamide], the negative-log IC50 (pIC50) is 7.54.

For `O=C(NC1CC(c2ccc(C(F)(F)F)cc2)CN(C(=O)N2CCC(O)CC2)C1)C1CCCC1` (single isomer, unassigned) [Example 177, N-{1-[(4-Hydroxypiperidin-1-yl)carbonyl]-5-[4-(trifluoromethyl)phenyl]piperidin-3-yl}cyclopentanecarboxamide], the pIC50 is 7.09.

As to `N#CC1CCN(C(=O)N2CC(NC(=O)C3CCCC3)CC(c3ccc(C(F)(F)F)cc3)C2)CC1` (single isomer, unassigned) [Example 178, N-{1-[(4-Cyanopiperidin-1-yl)carbonyl]-5-[4-(trifluoromethyl)phenyl]piperidin-3-yl}cyclopentanecarboxamide], the negative logarithm of the IC50 (pIC50) is 7.20.

Turning to `O=C(NC1CC(c2ccc(C(F)(F)F)cc2)CN(C(=O)N2CCC(O)CC2)C1)C1CCCC1` (racemic) [Example 170, N-{1-[(4-Hydroxypiperidin-1-yl)carbonyl]-5-[4-(trifluoromethyl)phenyl]piperidin-3-yl}cyclopentanecarboxamide], the pIC50 is 7.67.

Turning to `CCc1ccc(C2CC(NC(=O)c3ccc(-c4cccc(C(F)(F)F)c4)cn3)CN(C(=O)C3CCCC3)C2)cc1` (racemic) [Example 83, N-[1-(Cyclopentylcarbonyl)-5-(4-ethylphenyl)piperidin-3-yl]-5-[3-(trifluoromethyl)phenyl]pyridine-2-carboxamide], the pIC50 was 7.71.

`O=C(NC1CC(c2ccc(OC(F)(F)F)cc2)CN(C(=O)c2ccncc2)C1)c1ccccc1` (single isomer, unassigned) [Example 115, N-{1-(Pyridin-4-ylcarbonyl)-5-[4-(trifluoromethoxy)phenyl]piperidin-3-yl}benzenecarboxamide]: the negative logarithm of the IC50 (pIC50) is 7.95.

On to `O=C(NC1CC(c2ccc(C(F)(F)F)cc2)CN(C(=O)N2CCC(O)CC2)C1)c1ccccc1` (racemic) [Example 129, N-{1-[(4-Hydroxypiperidin-1-yl)carbonyl]-5-[4-(trifluoromethyl)phenyl]piperidin-3-yl}benzenecarboxamide], for which the pIC50 was 7.47.

Regarding `CCc1ccc(C2CC(NC(=O)N(C)c3ccccc3)CN(C(=O)C3CCCC3)C2)cc1` (racemic) [Example 95, 3-[1-(Cyclopentylcarbonyl)-5-(4-ethylphenyl)piperidin-3-yl]-1-methyl-1-phenylurea], the pIC50 was 6.63.

With `CCc1ccc(C2CC(NC(=O)OC)CN(C(=O)N3CCOCC3)C2)cc1` (racemic) [Example 102, Methyl [5-(4-ethylphenyl)-1-(morpholin-4-ylcarbonyl)piperidin-3-yl]carbamate], the negative logarithm of the IC50 (pIC50) was 6.78.

As to `CCc1ccc(C2CC(C(=O)Nc3ccccc3)CN(C(=O)c3scnc3C)C2)cc1` (racemic) [Example 36], the negative-log IC50 (pIC50) is 7.01.

As to `CCc1ccc(C2CC(NS(=O)(=O)Cc3ccccc3)CN(C(=O)C3CCCC3)C2)cc1` (racemic) [Example 104, N-[1-(Cyclopentylcarbonyl)-5-(4-ethylphenyl)piperidin-3-yl]-1-phenylmethanesulphonamide], the pIC50 is 6.61.

Regarding `O=C(NC1CC(c2ccc(C(F)(F)F)cc2)CN(C(=O)N2CCOCC2)C1)c1ccccc1` (single isomer, unassigned) [Example 128, N-{1-(Morpholin-4-ylcarbonyl)-5-[4-(trifluoromethyl)phenyl]piperidin-3-yl}benzenecarboxamide], the pIC50 was 7.77.

Regarding `CCc1ccc(C2CC(C(=O)Nc3ccccc3)CN(C(=O)C3(CC)COC3)C2)cc1` (racemic) [Example 18], the negative-log IC50 (pIC50) is 6.32.

`O=C(NC1CC(c2ccc(C(F)(F)F)cc2)CN(C(=O)N2CCS(=O)(=O)CC2)C1)c1ccccc1` (racemic) [Example 134, N-{1-[(1,1-Dioxidothiomorpholin-4-yl)carbonyl]-5-[4-(trifluoromethyl)phenyl]piperidin-3-yl}-benzenecarboxamide]: the negative-log IC50 (pIC50) is 7.81.

On to `Cc1cccc(C(=O)NC2CC(c3ccc(C(F)(F)F)cc3)CN(C(=O)N3CCOCC3)C2)n1` (racemic) [Example 162], for which the pIC50 is 7.60.

`CCc1ccc(C2CC(NC(=O)Nc3ccccc3)CN(C(=O)N3CCCC3)C2)cc1` (racemic) [Example 91, N-[5-(4-Ethylphenyl)-1-(pyrrolidin-1-ylcarbonyl)piperidin-3-yl]-3-phenylurea]: the pIC50 was 7.76.

On to `CCc1ccc(C2CC(NC(=O)C(C)(C)C)CN(C(=O)C3CCCC3)C2)cc1` (racemic) [Example 90, N-[1-(Cyclopentylcarbonyl)-5-(4-ethylphenyl)piperidin-3-yl]-2,2-dimethylpropanamide], for which the pIC50 is 6.44.

As to `CCc1ccc(C2CC(C(=O)Nc3ccccc3)CN(C(=O)CCOC)C2)cc1` (racemic) [Example 8, 5-(4-Ethylphenyl)-1-(3-methoxypropanoyl)-N-phenylpiperidine-3-carboxamide], the pIC50 was 6.96.
